Results taken from article PMC5789975, “Computer-aided Discovery of Peptides that Specifically Attack Bacterial Biofilms” (Scientific Reports, 2018).
Converted amounts (≈) assume the structure as drawn. Read-outs that look alike come from different tables or passages of the source. Ends that are not written are not given here.

Legend:
[1] = test system: planktonic S. aureus MRSA (SAP0017); assay: MIC determination, broth microdilution; format: cell-based, Staphylococcus aureus; conditions: for MIC: Staphylococcus aureus, MRSA; for MIC, MHB: Mueller Hinton Broth; for MIC, MHB / MIC, TSB with 1% Glucose: broth microdilution, ~5 × 10^5 CFU/ml, 37 °C overnight, visual read, mean of three biological replicates; for MIC, TSB with 1% Glucose: Tryptic Soy Broth with 1% glucose
Experimental: The MIC of the synthesized peptides was determined in both Mueller Hinton Broth (MHB) and Tryptic Soy Broth (TSB) supplemented with 1% glucose, using the broth microdilution method[21] with slight modifications. Briefly, 10 μl of a 10× concentrated peptide stock solution, vancomycin antibiotic, or vehicle control (water) was placed in the bottom of a well in a 96-well polypropylene round bottom plate (Corning Inc. Corning, NY). A bacterial suspension of S. aureus MRSA (SAP0017, clinical isolate kindly provided by Dr. Tony Chow, Vancouver General Hospital) was prepared from an overnight culture to a final cell density of ~5 × 10^5 CFU/ml and 90 μl of this was added to each well.

[2] = test system: S. aureus (MRSA SAP0017) biofilms; assay: Static microtitre plate antibiofilm screen (crystal violet); format: cell-based, Staphylococcus aureus; conditions: SPOT-synthesized, highest peptide concentration evaluated, compared to untreated controls; listed from most to least active
Experimental: The SPOT-synthesized peptides were evaluated for their antibiofilm activity in vitro as described previously. Briefly, 5 μl of SPOT-peptide stock solution or a corresponding serial dilution was placed in a 96-well polypropylene round bottom plate (Corning Inc. Corning, NY) and 95 μl of a 1/100 dilution of an overnight culture of MRSA SAP0017 in TSB supplemented with 1% glucose was added to each well. The plates were incubated overnight at 37 °C to allow for bacterial growth and biofilm maturation. After 24 hours, the media containing planktonic bacteria was rinsed from each well with distilled water and the remaining biomass was stained with 0.1% crystal violet. The unbound dye was rinsed away and the biofilm bound dye was suspended in 70% ethanol and the absorbance at 595 nm was recorded on a plate reader. Percent biofilm inhibition was calculated by comparison to the amount of crystal violet stain in the untreated controls (defined as 100%) and the sterility control wells (defined as 0%). Results from three separate biological replicates were averaged and outliers were identified using the modified Thompson Tau test and removed from the analysis. The antibiofilm activity of all SPOT-derived peptides was assessed at multiple concentrations (up to five 2-fold dilutions from the stock solution) and the peptide concentration yielding the largest difference in percent inhibition of biofilm growth was used in subsequent analysis.

| Compound | antibiofilm activity of SPOT-synthesized Experimental Validation Set peptides [2] | further results |
| --- | --- | --- |
| CN[C@H](CC(C)C)C(=O)N[C@H]1C(=O)N[C@@H](CC(N)=O)C(=O)N[C@H]2C(=O)N[C@H]3C(=O)N[C@H](C(=O)N[C@H](C(=O)O)c4cc(O)cc(O)c4-c4cc3ccc4O)[C@H](O)c3ccc(c(Cl)c3)Oc3cc2cc(c3O[C@@H]2O[C@H](CO)[C@@H](O)[C@H](O)[C@H]2O[C@H]2C[C@](C)(N)[C@H](O)[C@H](C)O2)Oc2ccc(cc2Cl)[C@H]1O [Vancomycin, reference compound] |  | MIC ([1]; read-out: MIC, MHB): 0.34 µM (≈ 0.493 µg/mL); MIC ([1]; read-out: MIC, TSB with 1% Glucose): 0.68 µM (≈ 0.986 µg/mL) |
| GLIIKIIKKRLW [compound 26, Experimental Validation Set peptide] | exhibited antibiofilm activity |  |
| IKWVLRKIVQII [compound 37, Experimental Validation Set peptide] | exhibited antibiofilm activity |  |
| IQLKLIWVKRKW [compound 48, Experimental Validation Set peptide] | exhibited antibiofilm activity |  |
| IQRWWKVWLKVI-NH2 [compound 3004, QSAR–predicted antibiofilm peptide, >95% purity, C-terminally amidated] | exhibited antibiofilm activity | MIC, MHB [1]: 4 µM; MIC, TSB with 1% Glucose [1]: 16 µM |
| IWLRLKVVLKRK-NH2 [compound 3006, QSAR–predicted antibiofilm peptide, >95% purity, C-terminally amidated] | exhibited antibiofilm activity | MIC, MHB [1]: 4 µM; MIC, TSB with 1% Glucose [1]: 32 µM |
| KKWQLLIKWKLR [compound 11, Experimental Validation Set peptide] | exhibited antibiofilm activity |  |
| LIVIQLLKKWWK [compound 41, Experimental Validation Set peptide] | exhibited antibiofilm activity |  |
| LWQLWLKLKLKG [compound 56, Experimental Validation Set peptide] | exhibited antibiofilm activity |  |
| RRIIKILLWKLR [compound 10, Experimental Validation Set peptide] | exhibited antibiofilm activity |  |
| RRQWRGWVRIWL-NH2 [compound 3005, QSAR–predicted antibiofilm peptide, >95% purity, C-terminally amidated] | exhibited antibiofilm activity | MIC, MHB [1]: 4 µM; MIC, TSB with 1% Glucose [1]: 64 µM |
| VIKVLIKRWLKL [compound 9, Experimental Validation Set peptide] | exhibited antibiofilm activity |  |
| VIKWLLKILRAI-NH2 [compound 3001, QSAR–predicted antibiofilm peptide, >95% purity, C-terminally amidated] | exhibited antibiofilm activity | MIC, MHB [1]: 1 µM; MIC, TSB with 1% Glucose [1]: 2 µM |
| VLKIKVKIWVVK-NH2 [compound 3007, QSAR–predicted antibiofilm peptide, >95% purity, C-terminally amidated] | exhibited antibiofilm activity | MIC, MHB [1]: 16 µM; MIC, TSB with 1% Glucose [1]: >64 µM |
| VLQIKKVLRLLL [compound 17, Experimental Validation Set peptide] | exhibited antibiofilm activity |  |
| VQWIQIVVWRKR [compound 6, Experimental Validation Set peptide] | exhibited antibiofilm activity |  |
| WIIRWIKIWLKI [compound 46, Experimental Validation Set peptide] | exhibited antibiofilm activity |  |
